Publication PMC9241302, “Identification of 2-(4-N,N-Dimethylaminophenyl)-5-methyl-1-phenethyl-1H-benzimidazole targeting HIV-1 CA capsid protein and inhibiting HIV-1 replication in cellulo” (BMC Pharmacology & Toxicology, 2022)
“Also recorded” adds a separate entry of the source. Like-named read-outs stand apart in the source and are kept apart here.

Experiments:
[1] = test system: human embryonic kidney cells; design: method as in PMID 25512408, PMID 30393786, PMID 24749923, PMID 26492824; details: read-out: EC50 in human embryonic kidney cells (cytotoxicity); cited from earlier work
HIV-1 = details: Table 1, PF74, literature value; read-out: IC50 in U87; cited from earlier work
HIV-1 CA [2] = details: Table 1, PF74, literature value; read-out: Binding affinity; cited from earlier work
U87 cells = details: cited from earlier work
human MT4 = details: cited from earlier work
human TZM-bl = details: cited from earlier work
[3] = human, microsomes; cited from earlier work
HIV-1 CA [4] = target: T1, HIV-1 CA (Human immunodeficiency virus type 1 group M subtype B, UniProt P12493); design: the capsid protein (CA) of the Gag polyprotein; made in house; host or cells: Escherichia coli BL21(DE3) pLysS; method as in PMID 30393786; details: PF74 data from the literature, same condition, cited from earlier work
HIV-1 NL4-3 Ba-L = assay: microbe, parasite or virus in culture; format: cell-based; details: for inhibition of HIV-1 replication (in words): U87-CD4-CCR5 cells, serial 1:2 dilutions from 10 µM
Procedure: Compounds were first dissolved in DMSO to reach a concentration of 20 mM. They were further diluted to a 200 µM working stock and then further diluted to reach a starting concentration of 10 µM in the culture plate. U87-CD4-CCR5 cells were seeded in quadruplicate at 4000 cells/well in a final volume of 100 µL. The next day, 24 µL of the compound was added in serial 1:2 dilutions to the cells. Two hours later, 25 µL of infectious virus (NL4-3 Ba-L) were added to the cells with a TCID50 of 250. AZT at 10 µM was included as an inhibition control. The medium was replenished in the presence of compounds once every 3 to 4 days. The supernatant was collected every 3–4 days and analyzed for virus production by an in-house p24 capture ELISA. IC50 was calculated using “Quest Graph™ IC50 Calculator” (AAT Bioquest, Inc., https://www.aatbio.com/tools/ic50-calculator). Cytotoxicity of the compound was tested on U87-CD4-CCR5 cells in parallel by MTT assay (at the same protocol as in Sect. 3.5 but after 11 days of incubation))[39].

[5] = Cytotoxicity in murine macrophages (MTT); format: cell-based; details: mouse, J774.1 murine macrophages; Fig. 2 toxicology summary
Procedure: (§1) TZM-bl cells, U87-CD4-CCR5, murine macrophages (J774.1), and THP-1 monocytes (ATCC®TIB-202™) were grown following ATCC recommendations. Cells were seeded in a 96-well plate (10^4 cells in 200 µL culture medium) and incubated at 37 °C in a 5% CO2 atmosphere for 48 h, to allow cell adhesion before drug testing. For stimulation (THP-1 monocytes), cells were incubated with 100 nM of phorbol 12-myristate 13-acetate (PMA) for 48 h. […] A vehicle for control (0.4% DMSO) and negative wells (cells in medium) was used in each test. […] After removing the medium, formazan crystals were dissolved in 180 µL of DMSO and 20µL of MTT buffer (0.1 M glycine, 0.1 M NaCl, 0.5 mM EDTA, pH 10.5), and the absorbance at 560 nm was measured. […] Tests were performed in triplicate, in two independent experiments.

[6] = Solubility observed in the assays; format: physicochemical; details: for solubility at high concentrations (in words): HIV-1 replication assay
HIV-1 CA [7] = target: T1, HIV-1 CA; assay: HIV-1 CA assembly inhibition assay (absorbance at 340 nm); format: biochemical; design: the capsid protein (CA) of the Gag polyprotein; made in house; host or cells: Escherichia coli BL21(DE3) pLysS; details: compounds at 25 or 50 µM, CA 5 mg/mL, 30 min
Procedure: The CA assembly assay was performed in a final volume of 70 µL in 384-well plates, with a final concentration of 5 mg/mL of purified recombinant HIV-1 CA in Phosphate/NaCl Buffer (NaH2PO4/Na2HPO4 50 mM, NaCl 100 mM, pH 7.4), as described for FIV CA [27, 31]. Absorbance was measured at 340 nm every 30 s in a multiplate reader VarioskanTM Flash Multimode Reader (Thermo Scientific, MA, US) at 37 °C for 30 min. The compounds were tested at a fixed initial dose of 25 or 50 µM (at 0.5% DMSO [v/v]) by adding 1 µL of the concentrated ligand to the well before starting the measurement. The controls were CA at 5 mg/mL in only 0.5% DMSO [v/v] and CA without DMSO. The criteria to select active compounds were the observation of at least 50% of assembly inhibition at these doses, based on the reduction of the OD value at 340 nm at the plateau value compared to the controls.

mice = details: cited from earlier work
[8] = cited from earlier work
[9] = design: method as in PMID 25512408, PMID 30393786, PMID 24749923, PMID 26492824; details: cited from earlier work
HIV-1 CA [10] = target: T1, HIV-1 CA; assay: Binding to HIV-1 CA by isothermal microcalorimetry (ITC); design: the capsid protein (CA) of the Gag polyprotein; details: 200 µM
Procedure: The affinity of compound 696 for HIV-1 CA in vitro was measured by microscale thermophoresis (MST) as described previously for FIV CA [31]. Due to its intrinsic autofluorescence interfering with MST, the binding of compound 314 to CA was measured using isothermal microcalorimetry (ITC) with a Microcal iTC200 calorimeter (Malvern Instruments, Worcestershire, UK). The calorimeter cell contained 200 µL of recombinant HIV-1 CA (kind gifted by Drs Verrier and Coiffier) at 0.78 mg/mL in phosphate buffer (NaH2PO4/Na2HPO4) 50 mM pH 7.5, NaCl 100 mM, 1% DMSO [v/v]. Compound 314 at 200 µM was then injected sequentially into the calorimeter cell (injection #1: 1 µL, injections #2-#20: 2 µL) at 120 s intervals. Data were analyzed using the OriginLab8.5® software according to the manufacturer’s instructions.

[11] = test system: HIV-1 reverse transcription (pol viral DNA); assay: qPCR quantification of reverse transcribed viral DNA in U87-CD4-CCR5 cells; format: cell-based; details: 10 µM, cells preincubated, DNA extracted 48 h post-infection
Procedure: U87-CD4-CCR5 cells were plated in a 24-wells plate at 1.25 × 10^5 cells per well. […] Total DNA was extracted 48 h post-infection using the AllPrep DNA/RNA Mini Kit (Qiagen, Venlo, Netherlands). […] The following program was used in the LightCycler 480 Real-Time PCR System (Roche, Basel, Switzerland): pre-incubation: 95 °C for 3 min, pre-amplification: 2 cycles of 95 °C for 15 s and 49 °C for 15 s, amplification: 40 cycles of 95 °C for 10 s, 58 °C for 20 s, 72 °C for 30 s, melting curve stage: 95 °C for 5 s, 55 °C for 1 min and then 97 °C with acquisition every 10 °C, cooling stage: 40 °C for 10 s. Serial dilution of the 8E5 cell line which contains 1 copy of HIV-1 proviral DNA per cell was used as a standard curve for viral RT products [46]. […] Results were calculated as the number of copies of Pol per copy of β-actin. Statistical analysis was performed using an unpaired, two-tailed, Mann–Whitney test with GraphPad Prism 7.0 software. Tests were performed in quadruplicate, in two independent experiments.

[12] = test system: murine macrophages (J774.1); assay: Cytotoxicity in murine macrophages (MTT); format: cell-based; details: 50 µM, 24 h
Procedure: as §1

## Cc1[nH]c2ccccc2c1CC(=O)NC(Cc1ccccc1)C(=O)N(C)c1ccccc1 (centres unmarked) [PF74]
[1]
  EC50: > 50 µM
HIV-1
  IC50: 0.06 µM
HIV-1 CA [2]
  Kd: 0.06 to 0.09 µM
U87 cells
  EC50: 75 µM
Human MT4
  EC50: 70 µM
Human TZM-bl
  EC50: 47 µM
Human TZM-bl; read-out: EC50 in TZM-bl cells (μM) 48hs, Table 1, PF74, 48hs, literature value
  EC50: 23.5 µM
[3]
  Metabolic stability, half-life (t1/2): Human liver microsomes, the half-life (t1/2) less than 1 min
HIV-1 CA [4]
  Effect in p24 multimerization in vitro: accelerated
HIV-1 CA [4]; listed as C00001
  Effect in p24 multimerization in vitro: acceleration

## C=CCn1c(C(=O)O)cs/c1=N\N=C\c1ccc(/C=N/N=c2\scc(C(=O)O)n2CC=C)cc1 [compound 1310]
HIV-1 NL4-3 Ba-L
  inhibition of HIV-1 replication (in words): trend towards inhibition
[5]
  EC50: > 50 µM
[6]
  solubility at high concentrations (in words): solubility problems
HIV-1 CA [7]
  interference with the assembly of HIV-1 CA in vitro: interference with the assembly

## C=CCn1c(C(=O)N2CCN(C/C=C/c3ccccc3)CC2)cs/c1=N/N=C\C=C\c1ccco1 [compound 314]
HIV-1 NL4-3 Ba-L
  inhibition of HIV-1 replication (in words): clear dose–response inhibition; also recorded: inhibition only at 10 µM
[5]
  EC50: 40 µM
[6]; pH 7.4, CA assembly assay, read-out: insolubility at concentrations
  solubility: > 10 µM
mice; Table S1, 314, not marked as TEST-calculated, Fig. 2 gives mice
  Oral Rat LD50: >2000 mg/kg
mice
  LD50 in mice (oral acute toxicity): 2000 mg/kg
[8]
  AMES Test (mutagenicity): non mutagenic; also recorded: no mutagenicity
[9]
  genotoxicity by Micronucleus Test: Not genotoxic; also recorded: no genotoxicity
HIV-1 CA [10]
  specific binding for HIV-1 CA: no specific binding

## CC(/C=N/N1CCSCC1)=C\c1ccco1 [compound 878]
HIV-1 NL4-3 Ba-L
  inhibition of HIV-1 replication (in words): trend towards inhibition
[5]
  EC50: 50 µM
[6]
  solubility at high concentrations (in words): solubility problems
HIV-1 CA [7]
  interference with the assembly of HIV-1 CA in vitro: interference with the assembly

## Cc1cn([C@H]2C[C@H](N=[N+]=[N-])[C@@H](CO)O2)c(=O)[nH]c1=O [AZT, Zidovudine, reference compound]
HIV-1 NL4-3 Ba-L; AZT 10 µM inhibition control
  p24 production: No p24 production was detected
[11]
  inhibition of HIV-1 reverse transcription (pol viral DNA by qPCR): efficient inhibition

## C=CCn1c(-c2ccc3ccccc3c2)cs\c1=N/N=C/C=C/c1ccco1 [compound 305]
[5]
  EC50: 50 µM
mice
  LD50 in mice (oral acute toxicity): 413 mg/kg
[8]
  AMES Test (mutagenicity): non mutagenic
HIV-1 CA [7]
  interference with the assembly of HIV-1 CA in vitro: interference with the assembly

## CCOC(=O)c1n(Cc2ccc(N(C)C)cc2)c2ccc([N+](=O)[O-])cc2[n+]1[O-] [compound 553]
[5]
  EC50: < 50 µM
[12]
  unspecific cytotoxicity in murine macrophages: 100%
HIV-1 CA [7]
  interference with the assembly of HIV-1 CA in vitro: interference with the assembly
